Data published in patent publication US9872494B2, “Active ingredient combinations comprising pyridylethylbenzamides and other active ingredients” (priority 2010, dated 2018).

Legend:
Format in all cases: in vivo
[1] = tested on: green peach aphid (Myzus persicae); assay: Myzus test (spray treatment), Chinese cabbage leaf disks; settings: for Mortality in % after 1d: spray
Source text: (§1) If the actual insecticide mortality is greater than calculated, then the combination is superadditive in its kill—that is, there is a synergistic effect. In this case the mortality actually observed must be greater than the value for the expected mortality (E) calculated on the basis of the formula given above.
Myzus Test (Spray Treatment)
Solvent: 78 parts by weight of acetone
• 1.5 parts by weight of dimethylformamide Emulsifier: 0.5 part by weight of alkylaryl polyglycol ether
A suitable preparation of active ingredient is prepared by mixing one part by weight of active ingredient with the stated amounts of solvent and emulsifier and diluting the concentrate with emulsifier-containing water to the desired concentration. A suitable suspension of biological agent is prepared by dissolving the cells, spores or viruses in emulsifier-containing water in the desired concentration.
Chinese cabbage (Brassica pekinensis) leaf disks infested by all stages of the green peach aphid (Myzus persicae) are sprayed with an active ingredient and/or biological agent preparation in the desired concentration.
After the desired time, the effect in % is ascertained. Here, 100% means that all of the aphids have been killed; 0% means that no aphids have been killed. The mortality figures determined are used for calculation according to the Colby formula (see sheet 1).

Meloidogyne incognita = Meloidogyne incognita test (gall formation on lettuce roots)
Source text: (§2) The anticipated effect of a given combination of two active ingredients may be calculated (cf. Colby, S. R., “Calculating Synergistic and Antagonistic Responses of Herbicide Combinations”, Weeds 15, pages 20-22, 1967) as follows: • if • X is the mortality, expressed in % of the untreated control, when active ingredient A is used in an application rate of m ppm, or m g/ha • Y is the mortality, expressed in % of the untreated control, when active ingredient B is used in an application rate of n ppm, or n g/ha • E is the mortality, expressed in % of the untreated control, when active ingredients A and B are used at application rates of m and n ppm or of m and n g/ha, • then
as §1
Meloidogyne incognita Test
Solvent: 125.0 parts by weight of acetone
A suitable preparation of active ingredient is prepared by mixing one part by weight of active ingredient with the stated amounts of solvent and diluting the concentrate with water to the desired concentration. […]
After the desired time, the nematicidal effect is determined on the basis of gall formation in %. […]

soya beans (Glycine max) = assay: Glycine max - growth promotion in combination with Mycorrhiza; settings: 44 days greenhouse, fresh roots
Protocol: Glycine max—Growth Promotion in Combination with Mycorrhiza
Seed of soya beans (Glycine max) is mixed with the desired amount of active ingredient in water. After drying, the seeds are sown in pots filled with sand and perlite (1:1). For inoculation with arbuscular mycorrhiza fungi, the sand-perlite mixture is mixed beforehand with the Mycorrhiza inoculum (AMykor GmbH; Germany) in a concentration of 25 ml/L. The seed is covered with 3 cm of Lecaton (expanded clay).
Over the following 44 days, the plants are cultivated in a greenhouse in good growth conditions. The pots are watered with a nutrient solution (Hoagland and Amon, 1950, half-concentrated solution) with a low phosphate concentration (20 μM).
The untreated control plants are cultured without arbuscular mycorrhiza fungi, but under the same conditions.
The growth-promoting effect on shoot and roots is ascertained via the weight of the fresh roots of the treated plant in comparison to the untreated control.

[2] = tested on: army worm (Spodoptera frugiperda); assay: Spodoptera frugiperda test (spray treatment), maize leaf disks; settings: foliar, 48 h, read-out: Mortality in % after 2d
Source text: as §2, §1
Spodoptera frugiperda Test (Spray Treatment)
Solvent: 78.0 parts by weight of acetone
• 1.5 parts by weight of dimethylformamide Emulsifier: 0.5 part by weight of alkylaryl polyglycol ether […]
After the desired time, the effect in % is ascertained. […] The mortality figures determined are used for calculation according to the Colby formula (see sheet 1).

[3] = tested on: cotton (Gossypium hirsutum); assay: Seed treatment - cotton emergence test; settings: after 2 days
Source text: Seed Treatment—Cotton Emergence Test
Seed of cotton (Gossypium hirsutum) is mixed with the desired amount of active ingredient and spores and also water. After drying, 25 seed grains in each case are sown in pots filled with sandy loam.
After 2 days, the effect in % is ascertained on the basis of the cotton plants that have emerged.

[4] = 1000 g ai/ha, 100% = all aphids killed
[5] = Myzus persicae, foliar, 24 h, read-out: Mortality in % after 1d

## Metschnikowia fructicola
[1]; [4]
  Mortality in % after 1d: 0%

## Cydia pomonella granulosis virus (CpGV)
[1]; [4]
  Mortality in % after 1d: 0%

## Metarhizium anisopliae strain F52
Meloidogyne incognita; 5 ppm, nematicidal effect from gall formation
  Mortality in % after 21d: 0%

## Bacillus thuringiensis subsp. tenebrionis
[1]; [4]
  Mortality in % after 1d: 0%

## Paecilomyces lilacinus strain 251
[1]; 5000 g ai/ha
  Mortality in % after 1d: 0%

## O=C(NCCc1ncc(C(F)(F)F)cc1Cl)c1ccccc1C(F)(F)F [Fluopyram, N-{2-[3-chloro-5-(trifluoromethyl)-2-pyridinyl]ethyl}-2-trifluoromethylbenzamide, reference compound]
Soya beans (Glycine max); 0.1 mg/seed grain, seed treatment
  Root weight in % in comparison to untreated control: 116.90%
[2]
  mortality at 1000 g/ha: 0%
[1]; [5]
  mortality at 500 g/ha: 0%
  mortality at 1000 g/ha: 0%
[3]; 0.5 g ai/kg seed
  Emergence in % in comparison to untreated control: 100%
[3]; 1 g ai/kg seed, untreated = 100
  Emergence in % in comparison to untreated control: 133%
Meloidogyne incognita; Meloidogyne incognita, 504 h, read-out: Mortality in % after 21d
  mortality at 0.0005 ppm: 0%

## O=S(=O)(CCC(F)=C(F)F)c1ncc(Cl)s1 [Fluensulfone, fluensulfone, reference compound]
[1]; 2000 g ai/ha
  Mortality in % after 1d: 0%

## C/C=C(\C)C(=O)O[C@H]1C[C@@H](OC(C)=O)[C@@]2(C(=O)OC)CO[C@H]3[C@@H](O)[C@@](C)([C@]45O[C@@]4(C)[C@H]4C[C@@H]5O[C@@H]5OC=C[C@@]54O)[C@H]4[C@]1(CO[C@]4(O)C(=O)OC)[C@@H]32 [Azadirachtin, azadirachtin, reference compound]
[1]; [5]
  mortality at 100 g/ha: 0%

## Bacillus subtilis strain GB03 [Bacillus subtilis strain GB 03]
[3]; 0.078 g ai/kg seed
  Emergence in % in comparison to untreated control: 158%

## Bacillus amyloliquefaciens strain FZB 42
[1]; 2000 g ai/ha
  Mortality in % after 1d: 0%
[3]; 0.075 g ai/kg seed
  Emergence in % in comparison to untreated control: 158%
[3]; 0.15 g ai/kg seed
  Emergence in % in comparison to untreated control: 163%

## arbuscular mycorrhiza fungus
Soya beans (Glycine max); Mycorrhiza inoculum 25 ml/L in sand-perlite
  Root weight in % in comparison to untreated control: 133.21%
